# Laboratory results published in ChEMBL document CHEMBL5260814, “Design strategies in the prodrugs of HIV-1 protease inhibitors to improve the pharmaceutical properties” (Eur J Med Chem, 2017).
# pIC50: −log10 of the molar value.
# How the values were obtained:
# [1] = Oral bioavailability in rat at 3 mg/kg; assay type: ADME, organism-based; conditions: in vivo
# [2] = Prodrug conversion in human serum at 50 uM using glycylprolyl-para-nitroanilide as substrate measured for 4 hrs relative to control; assay type: ADME, cell-free
# [3] = Prodrug conversion in human serum at 50 uM using glycylprolyl-para-nitroanilide as substrate measured for 1 hr relative to control; assay type: ADME, cell-free
# [4] = Equilibrium solubility of compound; assay type: physicochemical
# [5] = Solubility of compound at pH at 3; assay type: physicochemical; conditions: pH 3
# [6] = Solubility of compound at pH at 3 to 4; assay type: physicochemical
# [7] = Solubility of compound at pH at 7; assay type: physicochemical; conditions: pH 7
# [8] = Solubility of compound at pH at 1 to 8; assay type: physicochemical
# [9] = AUC in rat at 5 mg/kg, po; assay type: ADME, organism-based; set-up: dose 5 mg/kg, route po; conditions: in vivo
# [10] = Stability of compound assessed as half life at pH 2; assay type: physicochemical; conditions: buffer
# [11] = Aqueous solubility of compound; assay type: physicochemical; conditions: buffer
# [12] = Half life in calf; assay type: ADME, Bos taurus; conditions: cattle
# [13] = Efflux ratio of apparent permeability across apical to basolateral to basolateral to apical side in MDCK1 cells; assay type: ADME, cell-based
# CEM-SS = assay: Cytotoxicity against human CEM-SS cells assessed as inhibition of cell growth; assay type: functional
# [14] = Efflux ratio of apparent permeability across basal to apical membrane over apical to basal membrane in human Caco-2 cells; assay type: ADME, cell-based
# [15] = Metabolic stability in rat liver microsome assessed as compound remaining measured after 4 hrs; assay type: ADME; conditions: microsomes
# [16] = Metabolic stability in rat liver microsome assessed as compound remaining measured after 2 hrs; assay type: ADME; conditions: microsomes
# [17] = Stability of compound in PBS buffer at pH 7.3 assessed as half life; assay type: physicochemical
# [18] = Drug uptake in dog MDCK-MDR1 cells; assay type: ADME, cell-based, Canis lupus familiaris
# [19] = Stability of compound in DPBS buffer at pH 7.4 assessed as half life measured for 48 hrs; assay type: physicochemical
# [20] = Stability of compound in human Caco-2 cells assessed as half life measured for 48 hrs; assay type: ADME, cell-based
# [21] = Chemical stability of compound in PBS buffer at pH 4 assessed as half life measured for 24 hrs; assay type: physicochemical
# [22] = Chemical stability of compound in PBS buffer at pH 7.4 assessed as half life measured for 24 hrs; assay type: physicochemical
# [23] = target: Human immunodeficiency virus type 1 protease (Human immunodeficiency virus 1, UniProt Q72874); assay: Inhibition of HIV-1 protease by FRET-based assay
# [24] = Metabolic stability in rat liver microsome assessed as half life […]; assay type: ADME; conditions: liver microsomes
# P-glycoprotein = assay: Efflux ratio of apparent permeability across basal to apical membrane over apical to basal membrane in human Caco-2 cells in absence of P-glycoprotein; assay type: ADME, cell-based
# [25] = Metabolic stability in rat plasma assessed as half life at 0.2 mg/kg, po; assay type: ADME
# [26] = Stability of compound in PBS buffer at pH 7.4 assessed as half life; assay type: physicochemical
smiles,measurement,setting,value
CC(C)[C@H](N)C(=O)O[C@@H]1Cc2ccccc2[C@@H]1NC(=O)[C@H](Cc1ccccc1)C[C@H](O)CN1CCN(Cc2cccnc2)C[C@H]1C(=O)NC(C)(C)C,bioavailability,[1],32%
CC(C)CN(C[C@@H](O)[C@H](Cc1ccccc1)NC(=O)O[C@H]1CO[C@H]2OCC[C@H]21)S(=O)(=O)c1ccc(CNC(=O)[C@@H]2CCCN2C(=O)[C@@H](N)C(C)C)cc1,Drug metabolism,[2],2%
same,Drug metabolism,[3],2%
CC(C)CN(C[C@@H](O)[C@H](Cc1ccccc1)NC(=O)O[C@H]1CCOC1)S(=O)(=O)c1ccc(N)cc1,solubility thermodynamic,[4],160 µM
CC(C)CN(C[C@@H](OP(=O)([O-])[O-])[C@H](Cc1ccccc1)NC(=O)O[C@H]1CCOC1)S(=O)(=O)c1ccc(N)cc1.[Ca+2] [FOSAMPRENAVIR CALCIUM],solubility,[5],54000 µg/mL
same,solubility thermodynamic,[4],400 µM
same,solubility,[6],54000 µg/mL
same,solubility,[7],300 µg/mL
CC(C)CN(C[C@@H](OP(=O)([O-])[O-])[C@H](Cc1ccccc1)NC(=O)O[C@H]1CCOC1)S(=O)(=O)c1ccc(N)cc1.[Na+].[Na+] [FOSAMPRENAVIR SODIUM],solubility,[8],> 3000 µg/mL
CC(O[C@@H](C[C@H](Cc1ccccc1)NC(=O)[C@@H](NC(=O)N(C)Cc1csc(C(C)C)n1)C(C)C)[C@H](Cc1ccccc1)NC(=O)OCc1cncs1)OP(=O)([O-])[O-].[Na+].[Na+] (some centres not stated),AUC,[9],630 ng·h/mL
same,half-life,[10],< 0.25 h
same,solubility,[11],> 5000 µg/mL
CC(C)c1nc(CN(C)C(=O)N[C@H](C(=O)N[C@@H](Cc2ccccc2)C[C@H](OC(OP(=O)([O-])[O-])C(C)C)[C@H](Cc2ccccc2)NC(=O)OCc2cncs2)C(C)C)cs1.[Na+].[Na+] (some centres not stated),half-life,[12],> 0.5 h
CC(C)[C@H](NC(=O)CN)C(=O)O[C@H](CN1C[C@H]2CCCC[C@H]2C[C@H]1C(=O)NC(C)(C)C)[C@H](Cc1ccccc1)NC(=O)[C@H](CC(N)=O)NC(=O)c1ccc2ccccc2n1,Ratio,[13],2.1
CCCCCCCCCCCCCCCC(=O)OCC(COC(=O)CCCCCCCCCCCCCCC)OC(=O)CCC(=O)O[C@H](CN1C[C@H]2CCCC[C@H]2C[C@H]1C(=O)NC(C)(C)C)[C@H](Cc1ccccc1)NC(=O)[C@H](CC(N)=O)NC(=O)c1ccc2ccccc2n1,CC50,CEM-SS,> 100 µM
COC(=O)N[C@H](C(=O)N[C@@H](Cc1ccccc1)[C@@H](O)CN(Cc1ccc(-c2ccccn2)cc1)NC(=O)[C@@H](NC(=O)OC)C(C)(C)C)C(C)(C)C [ATAZANAVIR],efflux ratio,[14],12
Cc1cccc(C)c1OCC(=O)N[C@@H](Cc1ccccc1)[C@H](C[C@H](Cc1ccccc1)NC(=O)[C@H](C(C)C)N1CCCNC1=O)OC(=O)[C@@H](NC(=O)CN)C(C)C,Stability,[15],46%
same,Stability,[16],26%
Cc1cccc(C)c1OCC(=O)N[C@@H](Cc1ccccc1)[C@H](C[C@H](Cc1ccccc1)NC(=O)[C@H](C(C)C)N1CCCNC1=O)OCOP(=O)([O-])[O-].[Na+].[Na+],AUC,[9],19650 ng·h/mL
same,solubility,[11],> 5000 µg/mL
CC(C)CN(C[C@@H](OP(=O)(O)O)[C@H](Cc1ccccc1)NC(=O)O[C@H]1CCOC1)S(=O)(=O)c1ccc(N)cc1 [FOSAMPRENAVIR],solubility,[8],> 3000 µg/mL
CC(C)(C)NC(=O)[C@@H]1CN(Cc2cccnc2)CCN1C[C@@H](O)C[C@@H](Cc1ccccc1)C(=O)N[C@H]1c2ccccc2C[C@H]1OC(=O)CCCCO[C@H]1O[C@H](CO)[C@@H](O)[C@H](O)[C@@H]1O,half-life,[17],50 h
CCCCCCCC/C=C\CCCCCCCC(=O)OCC(COC(=O)CCCCCCC/C=C\CCCCCCCC)OC(=O)CCC(=O)O[C@H](CN1C[C@H]2CCCC[C@H]2C[C@H]1C(=O)NC(C)(C)C)[C@H](Cc1ccccc1)NC(=O)[C@H](CC(N)=O)NC(=O)c1ccc2ccccc2n1,CC50,CEM-SS,> 100 µM
Cc1cccc(C)c1OCC(=O)N[C@@H](Cc1ccccc1)[C@H](C[C@H](Cc1ccccc1)NC(=O)[C@H](C(C)C)N1CCCNC1=O)OC(=O)[C@@H](NC(=O)[C@@H](N)C(C)C)C(C)C,Stability,[15],46%
same,Stability,[16],10%
CC(C)(C)NC(=O)[C@@H]1C[C@@H]2CCCC[C@@H]2CN1C[C@@H](OC(=O)CCCC[C@@H]1SC[C@@H]2NC(=O)N[C@@H]21)[C@H](Cc1ccccc1)NC(=O)[C@H](CC(N)=O)NC(=O)c1ccc2ccccc2n1,Drug uptake,[18],72%
CC(C)(C)NC(=O)[C@@H]1C[C@@H]2CCCC[C@@H]2CN1C[C@@H](OC(=O)CCC(=O)OCC(O)C1OC(=O)C(O)=C1O)[C@H](Cc1ccccc1)NC(=O)[C@H](CC(N)=O)NC(=O)c1ccc2ccccc2n1 (some centres not stated),half-life,[19],9.65 h
same,half-life,[20],5.73 h
Cc1cccc(C)c1OCC(=O)N[C@@H](Cc1ccccc1)[C@@H](O)C[C@H](Cc1ccccc1)NC(=O)[C@H](C(C)C)N1CCCNC1=O [LOPINAVIR],solubility,[11],7 µg/mL
same,half-life,[21],101 h
same,Stability,[16],5%
same,half-life,[22],5.4 h
COc1ccc(S(=O)(=O)N(CC(C)C)C[C@@H](O)[C@H](Cc2ccccc2)NC(=O)CCC(=O)O)cc1,pIC50,[23],7.93
Cc1cccc(C)c1OCC(=O)N[C@@H](Cc1ccccc1)[C@H](C[C@H](Cc1ccccc1)NC(=O)[C@H](C(C)C)N1CCCNC1=O)OC(C)OP(=O)([O-])[O-].[Na+].[Na+] (some centres not stated),AUC,[9],9530 ng·h/mL
same,half-life,[10],< 0.25 h
same,solubility,[11],> 5000 µg/mL
CC(C)[C@H](N)C(=O)N[C@@H](C(=O)O[C@H](CN1C[C@H]2CCCC[C@H]2C[C@H]1C(=O)NC(C)(C)C)[C@H](Cc1ccccc1)NC(=O)[C@H](CC(N)=O)NC(=O)c1ccc2ccccc2n1)C(C)C,half-life,[24],2.97 h
same,efflux ratio,P-glycoprotein,1.2
CC(C)[C@@H](N)C(=O)O[C@H](CN1C[C@H]2CCCC[C@H]2C[C@H]1C(=O)NC(C)(C)C)[C@H](Cc1ccccc1)NC(=O)[C@H](CC(N)=O)NC(=O)c1ccc2ccccc2n1,half-life,[24],0.933 h
same,efflux ratio,P-glycoprotein,1.2
CCCCCCCC/C=C\CCCCCCCC(=O)OCC(COC(=O)CCCCCCC/C=C\CCCCCCCC)OC(=O)CCC(=O)O[C@@H](C[C@@H](Cc1ccccc1)C(=O)N[C@H]1c2ccccc2C[C@H]1O)CN1CCN(Cc2cccnc2)C[C@H]1C(=O)NC(C)(C)C,CC50,CEM-SS,> 100 µM
CC(C)(C)NC(=O)[C@@H]1CN(Cc2cccnc2)CCN1C[C@H](C[C@@H](Cc1ccccc1)C(=O)N[C@H]1c2ccccc2C[C@H]1OC(=O)CCCCO[C@H]1O[C@H](CO)[C@@H](O)[C@H](O)[C@@H]1O)OC(=O)CCCCO[C@H]1O[C@H](CO)[C@@H](O)[C@H](O)[C@@H]1O,half-life,[17],50 h
CCCC(O[C@@H](C[C@H](Cc1ccccc1)NC(=O)[C@@H](NC(=O)N(C)Cc1csc(C(C)C)n1)C(C)C)[C@H](Cc1ccccc1)NC(=O)OCc1cncs1)OP(=O)([O-])[O-].[Na+].[Na+] (some centres not stated),AUC,[9],450 ng·h/mL
CC(C)[C@H](N)C(=O)O[C@H](CN1C[C@H]2CCCC[C@H]2C[C@H]1C(=O)NC(C)(C)C)[C@H](Cc1ccccc1)NC(=O)[C@H](CC(N)=O)NC(=O)c1ccc2ccccc2n1,half-life,[24],0.783 h
same,efflux ratio,P-glycoprotein,1.2
CC(C)[C@H](NC(=O)[C@H](N)C(C)C)C(=O)O[C@H](CN1C[C@H]2CCCC[C@H]2C[C@H]1C(=O)NC(C)(C)C)[C@H](Cc1ccccc1)NC(=O)[C@H](CC(N)=O)NC(=O)c1ccc2ccccc2n1,half-life,[24],3.73 h
same,efflux ratio,P-glycoprotein,1.2
CC(C)c1nc(CN(C)C(=O)N[C@H](C(=O)N[C@@H](Cc2ccccc2)C[C@H](OCOP(=O)([O-])[O-])[C@H](Cc2ccccc2)NC(=O)OCc2cncs2)C(C)C)cs1.[Na+].[Na+],half-life,[12],0.117 h
same,AUC,[9],460 ng·h/mL
same,solubility,[11],> 5000 µg/mL
CCCCCCCCCCCCCCCC(=O)OCC(COC(=O)CCCCCCCCCCCCCCC)OC(=O)CCC(=O)O[C@@H](C[C@@H](Cc1ccccc1)C(=O)N[C@H]1c2ccccc2C[C@H]1O)CN1CCN(Cc2cccnc2)C[C@H]1C(=O)NC(C)(C)C,CC50,CEM-SS,> 100 µM
CC(C)(C)NC(=O)[C@@H]1CN(Cc2cccnc2)CCN1C[C@@H](O)C[C@@H](Cc1ccccc1)C(=O)N[C@H]1c2ccccc2C[C@H]1O.O,bioavailability,[1],76%
CC(C)[C@H](N)C(=O)N[C@H](C(=O)O[C@H](CN1C[C@H]2CCCC[C@H]2C[C@H]1C(=O)NC(C)(C)C)[C@H](Cc1ccccc1)NC(=O)[C@H](CC(N)=O)NC(=O)c1ccc2ccccc2n1)C(C)C,half-life,[24],1.48 h
same,efflux ratio,P-glycoprotein,1.2
same,half-life,[25],7.8 h
same,Ratio,[13],2.1
Cc1cccc(C)c1OCC(=O)N[C@@H](Cc1ccccc1)[C@H](O)C(=O)N1CSC(C)(C)[C@H]1C(=O)NC(C)(C)C,half-life,[26],4 min
